Consider 17 compounds from patent publication US9464058B2 (Hoffmann-La Roche Inc., priority 2012, dated 2016).

Molecules are shown by their SMILES.

For one test, the target named is T1, human CYP11B1 (Homo sapiens, UniProt P15538).
T1 construct: expressed in transfected cells
T1 sequence (P15538 25-503): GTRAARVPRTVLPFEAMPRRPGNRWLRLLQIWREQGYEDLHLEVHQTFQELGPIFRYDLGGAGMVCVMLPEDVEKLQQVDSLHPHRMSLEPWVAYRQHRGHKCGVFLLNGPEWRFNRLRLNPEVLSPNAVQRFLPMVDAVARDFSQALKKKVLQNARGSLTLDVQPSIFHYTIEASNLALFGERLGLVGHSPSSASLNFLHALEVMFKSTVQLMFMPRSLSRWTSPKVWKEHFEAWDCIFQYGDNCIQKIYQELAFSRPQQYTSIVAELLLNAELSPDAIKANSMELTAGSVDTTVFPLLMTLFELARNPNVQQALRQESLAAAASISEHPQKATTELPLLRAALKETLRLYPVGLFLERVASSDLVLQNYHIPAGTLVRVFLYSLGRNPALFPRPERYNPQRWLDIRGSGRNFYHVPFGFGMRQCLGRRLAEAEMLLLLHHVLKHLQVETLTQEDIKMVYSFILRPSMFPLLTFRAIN
The test is described as follows: G-402 cellular enzyme assay, human CYP11B1 (cortisol release, HTRF). Format: cell-based. Particulars: G-402 cells expressing human CYP11B1; 1 μM Deoxycortisol; 16 h. Put shortly:
(§1)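 G-402 cells stably expressing human CYP11B2 or CYP11B1, incubated 16 h with compound in DMEM/F12 with 2.5% charcoal-treated FCS plus 1 μM deoxycorticosterone (CYP11B2) or 1 μM deoxycortisol (CYP11B1). Aldosterone or cortisol in supernatant measured by HTRF; EC50 from 4-parameter MMF fit.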

The next test has as its target T2, human CYP11B2 (Homo sapiens, UniProt P19099).
T2 construct: expressed in transfected cells
T2 sequence (P19099 25-503): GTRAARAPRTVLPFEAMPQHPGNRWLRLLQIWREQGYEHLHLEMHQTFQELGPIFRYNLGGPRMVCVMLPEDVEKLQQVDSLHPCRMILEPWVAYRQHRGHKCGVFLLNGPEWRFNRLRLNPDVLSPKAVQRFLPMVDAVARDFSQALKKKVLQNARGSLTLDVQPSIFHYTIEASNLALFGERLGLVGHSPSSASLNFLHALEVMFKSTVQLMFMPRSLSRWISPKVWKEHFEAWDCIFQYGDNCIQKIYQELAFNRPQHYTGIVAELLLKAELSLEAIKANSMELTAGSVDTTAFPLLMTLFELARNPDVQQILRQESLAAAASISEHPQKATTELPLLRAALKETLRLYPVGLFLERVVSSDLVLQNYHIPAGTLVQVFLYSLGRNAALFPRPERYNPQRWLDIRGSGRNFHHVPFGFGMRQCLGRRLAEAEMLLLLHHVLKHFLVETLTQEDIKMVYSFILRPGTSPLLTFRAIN
The test is described as follows: G-402 cellular enzyme assay, human CYP11B2 (aldosterone release, HTRF). Particulars: G-402 cells expressing human CYP11B2; 1 μM Deoxycorticosterone; 16 h. Type of test: cell-based. Put shortly:
as §1

`Cn1cncc1C(=O)c1ccc(Cl)c(F)c1` [Example 9, (4-Chloro-3-fluoro-phenyl)-(3-methyl-3H-imidazol-4-yl)-methanone]: the EC50 on human CYP11B1 was 187 nM; at human CYP11B2, 7.7 nM.

Consider `CCn1cncc1C(=O)c1ccc(C(C)(C)C)cc1` [Example 35, (4-tert-Butyl-phenyl)-(3-ethyl-3H-imidazol-4-yl)-methanone], for which the values for the EC50 on human CYP11B1 and at human CYP11B2 were 1690 nM and 3670 nM, respectively.

Regarding `N#Cc1ccc(C(=O)c2cncn2C2CC2)cc1` [Example 18, 4-(3-Cyclopropyl-3H-imidazole-4-carbonyl)-benzonitrile], the concentration for a half-maximal effect (EC50) worked out at 28.7 nM at human CYP11B1 and 2.3 nM at human CYP11B2.

As for `CCn1cncc1C(=O)c1ccc(N(C)C(=O)OC(C)(C)C)cc1` [Example 88, [4-(3-Ethyl-3H-imidazole-4-carbonyl)-phenyl]-methyl-carbamic acid tert-butyl ester], the EC50 at human CYP11B1 came to 1290 nM; on human CYP11B2 it was 2200 nM.

In the case of `Cn1cncc1C(=O)c1cccc(F)c1` [Example 24, (3-Fluoro-phenyl)-(3-methyl-3H-imidazol-4-yl)-methanone], the EC50 on human CYP11B1 is 673 nM; at human CYP11B2 it was 65.2 nM.

Take `O=C(c1ccc(Cl)cc1)c1cncn1C1CC1` [Example 19, (4-Chloro-phenyl)-(3-cyclopropyl-3H-imidazol-4-yl)-methanone]: the EC50 at human CYP11B1 worked out at 52.9 nM; on human CYP11B2, 6.1 nM.

Turning to `N#Cc1ccc(-n2cncc2C(=O)c2ccc(Cl)c(F)c2)cc1` [Example 94, 4-[5-(4-Chloro-3-fluoro-benzoyl)-imidazol-1-yl]-benzonitrile], the concentration for a half-maximal effect (EC50) on human CYP11B1 worked out at 84.6 nM; on human CYP11B2, 14.4 nM.

As for `COc1ccc(C(=O)c2cncn2C)cc1` [Example 4, (4-Methoxy-phenyl)-(3-methyl-3H-imidazol-4-yl)-methanone], the EC50 is 3500 nM on human CYP11B1 and 118 nM on human CYP11B2.

Turning to `CC(C)n1cncc1C(=O)c1ccc(F)c(C#N)c1` [Example 64, 2-Fluoro-5-(3-isopropyl-3H-imidazole-4-carbonyl)-benzonitrile], the EC50 at human CYP11B1 was 448 nM; at human CYP11B2, 323 nM.

As for `Cn1cncc1C(=O)c1ccc(C#N)cc1` [Example 2, 4-(3-Methyl-3H-imidazole-4-carbonyl)-benzonitrile], the concentration for a half-maximal effect (EC50) was determined as 368 nM at human CYP11B1 and 11.6 nM on human CYP11B2.

As to `O=C(c1ccc(Cl)c(F)c1)c1cncn1-c1ccc(Cl)cc1` [Example 92, (4-Chloro-3-fluoro-phenyl)-[3-(4-chloro-phenyl)-3H-imidazol-4-yl]-methanone], the concentration for a half-maximal effect (EC50) on human CYP11B1 is 132 nM; at human CYP11B2, 3.2 nM.

With `CCC(C)n1cncc1C(=O)c1ccc(C#N)cc1` (stereo not shown) [Example 16, 4-(3-sec-Butyl-3H-imidazole-4-carbonyl)-benzonitrile], the EC50 was determined as 1 nM at human CYP11B1 and 0.7 nM on human CYP11B2.

Take `CCn1cncc1C(=O)c1ccc(Cl)c(F)c1` [Example 34, (4-Chloro-3-fluoro-phenyl)-(3-ethyl-3H-imidazol-4-yl)-methanone]: the EC50 at human CYP11B1 is 33 nM; on human CYP11B2 it was 2.7 nM.

With `N#Cc1ccc(-n2cncc2C(=O)c2ccc(Cl)cc2)cc1` [Example 95, 4-[5-(4-Chloro-benzoyl)-imidazol-1-yl]-benzonitrile], the figures for the EC50 on human CYP11B1 and at human CYP11B2 were 71.8 nM and 2.2 nM, respectively.

As to `Cn1cncc1C(=O)c1ccc(F)cc1` [Example 23, (4-Fluoro-phenyl)-(3-methyl-3H-imidazol-4-yl)-methanone], the EC50 came to 151 nM on human CYP11B1 and 49.3 nM on human CYP11B2.

Consider `CC(C)n1cncc1C(=O)c1ccc(N(C)C=O)cc1` [Example 93, N-[4-(3-Isopropyl-3H-imidazole-4-carbonyl)-phenyl]-N-methyl-formamide], for which the values for the EC50 at human CYP11B1 and on human CYP11B2 were 349 nM and 11.7 nM, respectively.

In the case of `Cn1cncc1C(=O)c1cccc(Cl)c1` [Example 22, (3-Chloro-phenyl)-(3-methyl-3H-imidazol-4-yl)-methanone], the concentration for a half-maximal effect (EC50) on human CYP11B1 is 543 nM; on human CYP11B2, 32.6 nM.
